Data as given in the NIST ThermoML archive (doi:10.1021/je060271a).

Conditions: 323.15 K, Liquid, Vibrating tube method

CCCCCCCC(=O)OCC(COC(=O)CCCCCCC)(COC(=O)CCCCCCC)COC(=O)CCCCCCC [pentaerythritol tetraoctanoate]
Conditions	mass density [kg/m3]
16301 kPa	951.3
16330 kPa	951.2
16376 kPa	951.3
16399 kPa	951.4
16422 kPa	951.4
16451 kPa	951.3
16486 kPa	951.5
16514 kPa	951.3
16560 kPa	951.4
16590 kPa	951.6
16619 kPa	951.6
16654 kPa	951.5
16683 kPa	951.5
16714 kPa	951.6
16744 kPa	951.6
16780 kPa	951.7
16810 kPa	951.5
16846 kPa	951.5
16876 kPa	951.7
16907 kPa	951.6
16937 kPa	951.7
16974 kPa	951.6
17005 kPa	951.8
17037 kPa	951.9
17074 kPa	951.8
17106 kPa	951.8
17140 kPa	951.8
17172 kPa	951.9
17203 kPa	951.8
17241 kPa	951.9
17266 kPa	951.9
17311 kPa	951.8
17344 kPa	951.9
17376 kPa	951.9
17414 kPa	952
17448 kPa	951.9
17480 kPa	952
17513 kPa	951.9
17554 kPa	952
17583 kPa	952.2
17622 kPa	952.1
17656 kPa	952.1
17696 kPa	952.2
17730 kPa	952.1
17763 kPa	952.1
17797 kPa	952.3
17838 kPa	952.3
17872 kPa	952.2
17907 kPa	952.2
17948 kPa	952.3
17984 kPa	952.3
18019 kPa	952.4
18055 kPa	952.5
18097 kPa	952.4
18132 kPa	952.3
18168 kPa	952.3
18210 kPa	952.5
18246 kPa	952.5
18282 kPa	952.4
18325 kPa	952.6
18361 kPa	952.5
18398 kPa	952.7
18442 kPa	952.6
18479 kPa	952.7
18516 kPa	952.6
18554 kPa	952.7
18599 kPa	952.7
18637 kPa	952.7
18682 kPa	952.7
18720 kPa	952.8
18758 kPa	952.8
18796 kPa	952.7
18843 kPa	952.9
18882 kPa	952.8
18922 kPa	952.9
18970 kPa	953
19012 kPa	953
19056 kPa	953
19097 kPa	953
19139 kPa	953.1
19166 kPa	952.9
19197 kPa	953.2
19223 kPa	953.1
19250 kPa	953.1
19282 kPa	953
19308 kPa	953.1
19341 kPa	953.3
19368 kPa	953.2
19395 kPa	953.2
19422 kPa	953.3
19456 kPa	953.2
19483 kPa	953.2
19511 kPa	953.2
19543 kPa	953.4
19571 kPa	953.3
19603 kPa	953.2
19632 kPa	953.3
19660 kPa	953.4
19688 kPa	953.4
19722 kPa	953.4
19750 kPa	953.4
19778 kPa	953.4
19812 kPa	953.4
19842 kPa	953.6
19871 kPa	953.4
19905 kPa	953.5
19934 kPa	953.4
19962 kPa	953.5
19997 kPa	953.5
20055 kPa	953.4
20090 kPa	953.6
20119 kPa	953.6
20149 kPa	953.7
20185 kPa	953.7
20216 kPa	953.7
20246 kPa	953.7
20276 kPa	953.7
20307 kPa	953.8
20343 kPa	953.7
20373 kPa	953.7
20404 kPa	953.7
20441 kPa	953.8
20471 kPa	953.8
20502 kPa	953.9
20538 kPa	953.8
20570 kPa	954
20601 kPa	953.9
20634 kPa	954
20667 kPa	954
20705 kPa	954
20736 kPa	954
20767 kPa	954
20805 kPa	954.1
20836 kPa	954.1
20868 kPa	954
20906 kPa	954
20938 kPa	954.2
20970 kPa	954.1
21008 kPa	954.2
21041 kPa	954.1
21074 kPa	954.1
21107 kPa	954.2
21146 kPa	954.2
21178 kPa	954.1
21218 kPa	954.3
21251 kPa	954.4
21284 kPa	954.4
21324 kPa	954.4
21358 kPa	954.4
21391 kPa	954.4
21431 kPa	954.4
21466 kPa	954.4
21500 kPa	954.5
21542 kPa	954.5
21576 kPa	954.5
21604 kPa	954.5
21646 kPa	954.4
21680 kPa	954.7
21722 kPa	954.6
21756 kPa	954.6
21798 kPa	954.5
21832 kPa	954.6
21946 kPa	954.8
21982 kPa	954.6
22025 kPa	954.7
22061 kPa	954.8
22097 kPa	954.7
22134 kPa	954.9
22178 kPa	954.9
22215 kPa	954.9
22259 kPa	954.9
22295 kPa	955
22325 kPa	954.9
22369 kPa	954.9
22414 kPa	955
22451 kPa	955.1
22490 kPa	955.1
22537 kPa	955.1
22576 kPa	955
22616 kPa	955.2
22664 kPa	955.1
22705 kPa	955.3
22743 kPa	955.2
22780 kPa	955.2
22834 kPa	955.5
22861 kPa	955.3
22894 kPa	955.3
22922 kPa	955.3
22950 kPa	955.3
22983 kPa	955.3
23011 kPa	955.4
23038 kPa	955.4
23066 kPa	955.4
23100 kPa	955.3
23127 kPa	955.5
23161 kPa	955.5
23189 kPa	955.5
23217 kPa	955.6
23250 kPa	955.5
23279 kPa	955.6
23308 kPa	955.5
23344 kPa	955.5
23372 kPa	955.7
23400 kPa	955.5
23429 kPa	955.7
23464 kPa	955.7
23492 kPa	955.6
23521 kPa	955.6
23556 kPa	955.6
23585 kPa	955.8
23614 kPa	955.8
23649 kPa	955.8
23679 kPa	955.8
23709 kPa	955.9
23740 kPa	955.8
23769 kPa	955.8
23804 kPa	955.8
23834 kPa	955.8
23869 kPa	955.8
23899 kPa	955.9
23929 kPa	955.9
23965 kPa	955.9
23995 kPa	955.9
24025 kPa	955.9
24062 kPa	956
24092 kPa	955.9
24124 kPa	955.9
24161 kPa	956
24191 kPa	956.2
24223 kPa	956.1
24260 kPa	956.1
24291 kPa	956
24322 kPa	956.2
24354 kPa	956.1
24391 kPa	956.2
24422 kPa	956.1
24460 kPa	956.2
24491 kPa	956.3
24523 kPa	956.3
24562 kPa	956.3
24594 kPa	956.3
24626 kPa	956.3
24658 kPa	956.4
24696 kPa	956.4
24728 kPa	956.4
24766 kPa	956.4
24799 kPa	956.4
24832 kPa	956.5
24871 kPa	956.5
24903 kPa	956.5
24936 kPa	956.6
24976 kPa	956.5
25008 kPa	956.6
25042 kPa	956.6
25075 kPa	956.5
25115 kPa	956.5
25149 kPa	956.7
25188 kPa	956.6
25222 kPa	956.6
25256 kPa	956.7
25290 kPa	956.7
25330 kPa	956.6
25364 kPa	956.7
25398 kPa	956.8
25439 kPa	956.8
25474 kPa	956.8
25509 kPa	956.8
25550 kPa	956.8
25584 kPa	957
25619 kPa	956.9
25654 kPa	957
25695 kPa	957
25729 kPa	956.9
25771 kPa	957
25806 kPa	957.1
25842 kPa	957.1
25878 kPa	957.1
25920 kPa	957.1
25957 kPa	957
25993 kPa	957.2
26028 kPa	957.1
26071 kPa	957.1
26107 kPa	957.1
26150 kPa	957.2
26186 kPa	957.2
26223 kPa	957.3
26259 kPa	957.3
26303 kPa	957.3
26340 kPa	957.2
26384 kPa	957.3
26421 kPa	957.5
26460 kPa	957.3
26498 kPa	957.4
26535 kPa	957.4
26579 kPa	957.5
